Reference: patent publication US20230200390A1, “SELECTIVE HERBICIDES BASED ON SUBSTITUTED ISOXAZOLIN CARBOXAMIDES AND MEFENPYR-DIETHYL” (BAYER AKTIENGESELLSCHAFT, priority 2020, published 2023)

Assays:
Type in all cases: in vivo
[1] = system: spring wheat, TRZAS Triso; assay: Seed treatment with safener; post-emergence herbicide, crop damage; details: 21 DAT; for HER effect + SAF [%] (crop damage) / Reduction [%] / Reduction [Difference]: mefenpyr-diethyl 0.5 g a.i./kg seed; for HER effect [%] (crop damage, herbicide without safener): no safener
Procedure, shortened: (§1)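 Crop injury was rated visually in % at 10 and 21 days after post-emergence spraying at the 2-leaf stage. The herbicide was a WP in 300 l/ha water plus 1 l/ha MERO. Plants grew from seed either safener-coated at stated g a.i./kg rates via a milk-diluted slurry, or untreated.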

[2] = system: spring barley, HORVS Montoya; assay: as above; details: 21 DAT; for HER effect + SAF / Reduction [%] / Reduction [Difference]: mefenpyr-diethyl 0.5 g a.i./kg seed
Procedure, shortened: as §1

[3] = system: spring wheat, TRZAS Triso; assay: Seed treatment with safener; pre-emergence herbicide, crop damage; details: for HER effect + SAF / Reduction [%] / Reduction [Difference]: mefenpyr-diethyl 0.25 g a.i./kg seed
Method: (§2) For the safener seed treatment, sufficient seeds of the respective crops (spring wheat, TRZAS; spring barley, HORVS; maize, ZEAMA) were weighed into screw top glass bottles approximately twice the volume of the seeds.
(§3) The specified safeners, formulated as wettable powder (WP) were weighed out so that the specified rates (g a.i./kg seed) would be obtained, dissolved in water (1 ml water per 10 g of seeds), and added to the seeds to produce a slurry.
(§4) The bottles were capped and then placed in an overhead shaker (set at medium speed for ca. 60 minutes) so that the seeds were evenly coated with the slurry. The bottles were uncapped and the seeds were either placed on paper and dried for an interval of 3-4 hours prior to sowing, or directly sown. Seeds were placed in sandy loam soil in pots of a diameter of 7-8 cm, and covered with soil.
(§5) Pre-emergence application of the specified herbicides was done subsequently, on two sets of plants:
(§6) a) seed treatment with safener, as described above
(§7) The herbicides were formulated as WP and was sprayed onto the soil surface as an aqueous suspension at an equivalent water application rate of 300 l/ha.
(§8) After application, the test plants were kept in the greenhouse under good growth conditions. At intervals up to 4 weeks after application (=28 days after treatment; DAT), % crop damage observed on the treated plants was scored visually in comparison to control plants that had not received any safener or herbicide treatment.
(§9) Values in the table below are mean values of at least 2 replicates.

[4] = system: spring barley, HORVS Montoya; assay: as above; details: for HER effect + SAF / Reduction [%] / Reduction [Difference]: mefenpyr-diethyl 0.25 g a.i./kg seed
Method: as §2, §3, §4, §5, §6, §7, §8, §9

[5] = system: spring wheat, TRZAS Triso; assay: Tank-mix; post-emergence: crop damage by herbicide with/without safener mefenpyr-diethyl; details: 21 DAT
Procedure, shortened: (§10)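 Visual percent crop damage (0–100 relative to untreated plants) assessed 1–3 weeks post-application. Plants in sandy loam were sprayed at the 1–3-leaf stage with herbicide with or without safener at several rates, water volume 300 l/ha.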

[6] = system: spring barley, HORVS Montoya; assay: as above; details: 21 DAT
Procedure, shortened: as §10

[7] = HER 0.5 g a.i./ha post-emergence
[8] = HER 5 g a.i./ha pre-emergence, 11 DAT (Interim)
[9] = HER 5 g a.i./ha pre-emergence, 21 DAT (Final)
[10] = HER 15 g a.i./ha pre-emergence, 11 DAT (Interim)
[11] = HER 15 g a.i./ha pre-emergence, 21 DAT (Final)
[12] = herbicide alone 5 g a.i./ha pre-emergence, 11 DAT (Interim)
[13] = herbicide alone 5 g a.i./ha pre-emergence, 21 DAT (Final)
[14] = herbicide alone 15 g a.i./ha pre-emergence, 11 DAT (Interim)
[15] = herbicide alone 15 g a.i./ha pre-emergence, 21 DAT (Final)
[16] = HER 1 g a.i./ha + mefenpyr-diethyl 50 g a.i./ha
[17] = HER 4 g a.i./ha + mefenpyr-diethyl 100 g a.i./ha
[18] = HER 0.5 g a.i./ha + mefenpyr-diethyl 50 g a.i./ha
[19] = HER 2 g a.i./ha + mefenpyr-diethyl 100 g a.i./ha

C=CC1(C(=O)NC2COC(C(=O)OC)C2)CC(c2cc(F)cc(F)c2)=NO1 (mixture of isomers) [Example 1.68]
HER effect + SAF [%] (crop damage) ([1]; HER dose 1 g a.i./ha): 20% | Reduction [%] ([1]; HER dose 1 g a.i./ha): 75% | Reduction [Difference] ([1]; HER dose 1 g a.i./ha): 60 | HER effect [%] (crop damage, herbicide without safener) ([1]; HER dose 1 g a.i./ha): 80% | HER effect + SAF [%] (crop damage) ([1]; HER dose 4 g a.i./ha): 30% | Reduction [%] ([1]; HER dose 4 g a.i./ha): 65% | Reduction [Difference] ([1]; HER dose 4 g a.i./ha): 55 | HER effect [%] (crop damage, herbicide without safener) ([1]; HER dose 4 g a.i./ha): 85% | HER effect + SAF [2, 7]: 0% | Reduction [%] [2, 7]: 100% | Reduction [Difference] [2, 7]: 30 | HER effect + SAF ([2]; HER 2 g a.i./ha post-emergence): 0% | Reduction [%] ([2]; HER 2 g a.i./ha post-emergence): 100% | Reduction [Difference] ([2]; HER 2 g a.i./ha post-emergence): 40 | HER effect ([2]; herbicide alone 0.5 g a.i./ha post-emergence): 30% | HER effect ([2]; herbicide alone 2 g a.i./ha post-emergence): 40% | HER effect + SAF [3, 8]: 15% | Reduction [%] [3, 8]: 67% | Reduction [Difference] [3, 8]: 30 | HER effect + SAF [3, 9]: 5% | Reduction [%] [3, 9]: 89% | Reduction [Difference] [3, 9]: 40 | HER effect + SAF [3, 10]: 30% | Reduction [%] [3, 10]: 63% | Reduction [Difference] [3, 10]: 50 | HER effect + SAF [3, 11]: 30% | Reduction [%] [3, 11]: 65% | Reduction [Difference] [3, 11]: 55 | HER effect [3, 12]: 45% | HER effect [3, 13]: 45% | HER effect [3, 14]: 80% | HER effect [3, 15]: 85% | HER effect + SAF [4, 8]: 5% | Reduction [%] [4, 8]: 80% | Reduction [Difference] [4, 8]: 20 | HER effect + SAF [4, 9]: 5% | Reduction [%] [4, 9]: 83% | Reduction [Difference] [4, 9]: 25 | HER effect + SAF [4, 10]: 0% | Reduction [%] [4, 10]: 100% | Reduction [Difference] [4, 10]: 65 | HER effect + SAF [4, 11]: 60% | Reduction [%] [4, 11]: 25% | Reduction [Difference] [4, 11]: 20 | HER effect [4, 12]: 25% | HER effect [4, 13]: 30% | HER effect [4, 14]: 65% | HER effect [4, 15]: 80% | HER effect + SAF [5, 16]: 30% | Reduction [%] [5, 16]: 63% | Reduction [Difference] [5, 16]: 50 | HER effect + SAF [5, 17]: 60% | Reduction [%] [5, 17]: 29% | Reduction [Difference] [5, 17]: 25 | HER effect ([5]; herbicide alone 1 g a.i./ha): 80% | HER effect ([5]; herbicide alone 4 g a.i./ha): 85% | HER effect + SAF [6, 18]: 0% | Reduction [%] [6, 18]: 100% | Reduction [Difference] [6, 18]: 30 | HER effect + SAF [6, 19]: 10% | Reduction [%] [6, 19]: 75% | Reduction [Difference] [6, 19]: 30 | HER effect ([6]; herbicide alone 0.5 g a.i./ha): 30% | HER effect ([6]; herbicide alone 2 g a.i./ha): 40%
